One series relates to platelets. The settings on record: 100 µM.
Protocol: Change of the take up rate of ^125 I-labled metaraminol into platelets in coexistence with of a medical compound:
The take up rate of ^125 I-labeled metaraminol into platelets in the coexistence with a medical compound was examined. Calculation was make taking the take up rate in case of ^125 I-labeled metaraminol alone as 100%. ^125 I-labeled metaraminol was added to platelets in a molar concentration of 1×10^-7.
On to `NCCc1c[nH]c2ccc(O)cc12` [Serotonin], for which the activity was found to be 17.1 ± 10.3%. Take `Cc1ccc(N(CC2=NCCN2)c2cccc(O)c2)cc1` [Phentolamine]: the activity was found to be 43.1 ± 3.4%.

`CN(C)CCCN1c2ccccc2CCc2ccccc21` [Imipramine] registered an activity of 45.8 ± 6.3%. Compound `CC(C)NCC(O)COc1cccc2ccccc12` (stereo not shown) [Propranolol] gave an activity of 18 ± 3.1%. For `CNCC(O)c1ccc(O)c(O)c1` (stereo not shown) [Adrenaline], the activity is 61.6 ± 8.3%.

Test system in a further series: not given
The note with it: background statement; cited from earlier work.
As to `CC(N)C(O)c1cccc(O)c1` (stereo not drawn) [metaraminol, alpha-(1-aminoethyl)-3-hydroxybenzenemethanol], the toxicity result is recorded as “no practical toxicity problem”. For `Oc1cccc2cccnc12` [oxine], the toxicity entry is given as “relatively high toxicity”.
